Reference: patent US20010018060A1, “Use of particular fatty substances which make it possible to modify the physicochemical properties of the skin and/or the mucous membranes as agents preventing or reducing the adhesion of microorganisms to the latter” (priority 2000, published 2001)

Columns and labels:
[1] = system: Staphylococcus aureus adhering to reconstructed epidermis; format: cell-based; conditions: for Reduction of log/control: reduction of decimal logarithm of mean number of viable Staphylococcus aureus adhering to reconstructed epidermis (EPISKIN) vs water, 25 mg fatty substance, 2 hours at 37° C., then 24 hours with bacteria
Procedure: Moreover, these fatty substances are such that the decimal logarithm of the mean number of viable bacteria adhering to reconstructed epidermis, after a test consisting in bringing the said epidermis into contact with the test compound for 2 hours at 37° C., is at least 0.3, preferably 0.5 and more preferably 1, less than that obtained by a test carried out with water under the same conditions.
The reconstructed epidermis used in the test indicated above is reconstructed human epidermis, equivalent to human skin, sold by EPISKIN.
The antiadhesion test corresponds to the protocol below:
Before bacterial adhesion, the reconstructed epidermis is brought into contact for 2 hours with 25 mg of the fatty substance to be tested at 37° C. 1 ml of bacterial suspension of Staphylococcus aureus at a concentration of 10^7 microorganisms/ml in Tryptone salt is then added thereto. After incubating for 24 hours at 37° C., the bacterial suspension is emptied and five rinsings are carried out with 1 ml of sterile distilled water. The epidermis, detached from its support, is then ground with the aid of a food processor in 18 ml of Tryptone salt. A decimal dilution is carried out on this suspension in Tryptone salt, and 1 ml of the dilution is then inoculated into 15 ml of Trypticase Soy agar and the medium is incubated for 24 hours at 37° C. The adherent and viable cells are then counted.
This antiadhesion test makes it possible to evaluate the efficacy of molecules alone or of finished products.
(§1) The figures presented opposite the fatty substance correspond to the reduction of the decimal logarithm of the mean number of viable Staphylococcus aureus adhering to reconstructed epidermis after treatment with the fatty substance under the conditions defined by the preceding test compared with the decimal logarithm of the mean number of viable Staphylococcus aureus adhering to reconstructed epidermis after treatment with water under the same conditions.
as §1, with “value” for “reduction”

[2] = interfacial tension of the fatty substance; format: physicochemical

Row | Compound | Reduction of log/control [1] | Log measured ([1]; decimal logarithm of viable adhering Staphylococcus aureus compared with water control, the printed number is an increase /control, same test conditions) | Interfacial tension [2]
1 | Tartrate of branched C12-C13 dialcohols | 2.31 | – | –
2 | CC(C)CCCC(C)CCCC(C)CCCCC(C)CCCC(C)CCCC(C)C (centres unmarked) [Squalane, reference compound] | – | 0.27/control | 46 mN/m
3 | CCCCCCCCOC(=O)CCCCC(=O)OCCCCCCCC [Dioctyl adipate] | 0.9 | – | –
4 | Di(C12-13 alkyl) malate | 3.68 | – | –
5 | CCCCCCCCCCCCCCCC(=O)OCC(O)COCC(CC)CCCC (centres unmarked) [Octoxyglyceryl palmitate] | 1.85 | – | –
6 | CCCCCCCCCCCCCCCC(=O)OC(C)C [Isopropyl palmitate] | 1.07 | – | –
7 | CCCCCCCCCCCCCCCCCCCCCC(=O)OCC(O)COCC(CC)CCCC (centres unmarked) [Octoxyglyceryl behenate] | 2.59 | – | –
